± gives the expanded uncertainty stated by the source.
Conditions: Liquid; for mass density: 101.33 kPa, Vibrating tube method; for speed of sound: Pulse-echo method

BrCCCBr [1,3-dibromopropane]
Conditions | mass density [kg/m3]
292.55 K | 1980.22 ± 1.2
297.98 K | 1970.22 ± 1.2
303.07 K | 1961.58 ± 1.2
308.02 K | 1952.84 ± 1.2
314.58 K | 1941.18 ± 1.2

Conditions | speed of sound [m/s]
292.66 K, 100 kPa | 1078.9 ± 1.2
292.72 K, 15200 kPa | 1114.4 ± 2.3
292.78 K, 30400 kPa | 1148.6 ± 2.3
292.79 K, 45600 kPa | 1180.5 ± 2.3
292.8 K, 60810 kPa | 1210.8 ± 2.3
292.8 K, 91220 kPa | 1265.8 ± 2.4
292.82 K, 76010 kPa | 1239.1 ± 2.4
292.83 K, 101350 kPa | 1283 ± 2
298.03 K, 76000 kPa | 1227.5 ± 2.4
298.04 K, 45600 kPa | 1167.8 ± 2.3
298.04 K, 60810 kPa | 1198.5 ± 2.4
298.04 K, 91210 kPa | 1255 ± 2.4
298.05 K, 30400 kPa | 1135.1 ± 2.3
298.07 K, 15210 kPa | 1100.1 ± 2.3
298.08 K, 101330 kPa | 1272.4 ± 2.4
298.61 K, 100 kPa | 1062.6 ± 1.2
302.95 K, 15210 kPa | 1087.4 ± 2.3
302.95 K, 30410 kPa | 1123 ± 2.3
302.95 K, 45600 kPa | 1156.1 ± 2.3
302.95 K, 60790 kPa | 1187.2 ± 2.3
302.95 K, 76010 kPa | 1216.7 ± 2.4
302.95 K, 91220 kPa | 1244.5 ± 2.4
302.95 K, 101350 kPa | 1262.3 ± 2.4
303.58 K, 100 kPa | 1049 ± 1.2
308.04 K, 76010 kPa | 1205.6 ± 2.4
308.04 K, 91210 kPa | 1233.7 ± 2.4
308.04 K, 101350 kPa | 1251.8 ± 2.4
308.05 K, 15210 kPa | 1074.3 ± 2.3
308.05 K, 30410 kPa | 1110.5 ± 2.3
308.05 K, 45620 kPa | 1144.2 ± 2.3
308.05 K, 60820 kPa | 1175.8 ± 2.3
308.67 K, 100 kPa | 1035.3 ± 1.2
313.41 K, 15230 kPa | 1060.7 ± 2.3
313.41 K, 30410 kPa | 1097.5 ± 2.3
313.41 K, 45610 kPa | 1131.7 ± 2.3
313.41 K, 60800 kPa | 1163.8 ± 2.4
313.41 K, 76010 kPa | 1194 ± 2.4
313.42 K, 91200 kPa | 1222.6 ± 2.4
313.42 K, 101330 kPa | 1240.8 ± 2.4
314.7 K, 100 kPa | 1019 ± 1.2

BrCCCCCBr [1,5-dibromopentane]
Conditions | speed of sound [m/s]
292.38 K, 100 kPa | 1149.5 ± 1.2
292.47 K, 91200 kPa | 1354 ± 2.4
292.48 K, 30400 kPa | 1226.2 ± 2.3
292.5 K, 45600 kPa | 1260.8 ± 2.3
292.52 K, 60800 kPa | 1293.4 ± 2.4
292.53 K, 15210 kPa | 1189.1 ± 2.3
292.57 K, 101320 kPa | 1372.2 ± 2.4
292.59 K, 76010 kPa | 1324.4 ± 2.4
298 K, 60800 kPa | 1281.2 ± 2.4
298 K, 91200 kPa | 1342.4 ± 2.4
298 K, 101330 kPa | 1361.6 ± 2.4
298.01 K, 45600 kPa | 1248 ± 2.3
298.02 K, 30410 kPa | 1212.7 ± 2.3
298.03 K, 15210 kPa | 1174.8 ± 2.3
298.05 K, 76000 kPa | 1312.6 ± 2.4
298.37 K, 100 kPa | 1133 ± 1.2
303 K, 76000 kPa | 1302 ± 2.4
303.01 K, 15200 kPa | 1162.1 ± 2.3
303.01 K, 30400 kPa | 1200.6 ± 2.3
303.01 K, 60790 kPa | 1270 ± 2.4
303.01 K, 91200 kPa | 1331.8 ± 2.4
303.01 K, 101340 kPa | 1350.7 ± 2.4
303.02 K, 45600 kPa | 1236.5 ± 2.3
303.4 K, 100 kPa | 1119.3 ± 1.2
308.03 K, 15210 kPa | 1148.7 ± 2.3
308.03 K, 30410 kPa | 1187.7 ± 2.3
308.03 K, 45590 kPa | 1224 ± 2.3
308.05 K, 101330 kPa | 1340 ± 2.4
308.06 K, 60790 kPa | 1257.9 ± 2.4
308.06 K, 76000 kPa | 1290.1 ± 2.4
308.06 K, 91200 kPa | 1320.5 ± 2.4
308.38 K, 100 kPa | 1105.8 ± 1.2
313.14 K, 76030 kPa | 1279.3 ± 2.4
313.16 K, 91210 kPa | 1310.1 ± 2.4
313.16 K, 101330 kPa | 1330 ± 2.4
313.17 K, 45610 kPa | 1212.3 ± 2.3
313.18 K, 60800 kPa | 1246.8 ± 2.4
313.2 K, 15210 kPa | 1135.8 ± 2.3
313.2 K, 30410 kPa | 1175.5 ± 2.3
314.36 K, 100 kPa | 1089.7 ± 1.2
